Source: PMC9792601, “Conformational switch and multiple supramolecular structures of a newly identified self-assembling protein-mimetic peptide from Pseudomonas aeruginosa YeaZ protein” (Frontiers in Chemistry, 2022)
Ends that are not written are not given here.

What was measured:
[1] = 20 mM hydrogel in Milli-Q water, room temperature, 10 months
Experimental: To prepare the hydrogels at different concentration, the lyophilized PMP-2 was dissolved in the suitable amount of Milli-Q water (final concentration of the prepared solutions: 0.1, 1, 2, 5, 10, and 20 mM) heating at 60°C for 3 min and sonicating for 1 min. The clear solutions were left cooling at rt.
5 Preparation of the PMP-2-based hydrogels
PMP-2 was dissolved in the suitable amount of milliQ water (final concentration of the prepared
solutions: 0.1 mM, 1 mM, 2 mM, 5 mM, 10 mM and 20 mM) heating at 60 °C for 3 minutes and
sonicating for 1 min. The clear solutions were left cooling at rt.
The 20 mM hydrogel was kept at room

[2] = Solubility observations in solvents; type: physicochemical
[3] = Dynamic Light Scattering of aggregates; type: physicochemical; conditions: 25°C, aged 24 h
Experimental: Malvern Zetasizer Nano instrument (Malvern Panalytical, Ltd.) was employed for Dynamic Light Scattering (DLS) analysis, performed at 25°C. The instrument is equipped with a 633 nm […] He–Ne laser at a scattering angle of 173°. All the samples used to analyze the stability of the PMP-2 aggregates as a function of different DMSO/water ratio were prepared by solvent displacement technique starting from concentrated solutions in 100% DMSO (0.125, 0.2, 0.5, 2, 4, and 10 mM) to obtain 0.1 mM final concentrations in Milli-Q water, with 80%, 50%, 20%, 10%, 5%, 2.5% and 1% v/v of DMSO, respectively. All the samples used to analyze the stability of the PMP-2 aggregates as a function of concentration were prepared starting from 0.1 mM in Milli-Q water with 5% v/v of DMSO and diluting with Milli-Q water to obtain the final concentration of 0.05, 0.01, 0.005, and 0.001 mM. The corresponding refractive index and viscosity data of DMSO/water mixtures are reported in the literature ([LeBel and Goring, 1962]) and the samples were aged 24 h at room temperature before the measurements.

For AIAIGVVQGLAFALGGKKKG [PMP-2], the “stability of hydrogel on storage” value [1] was “complete stability”, the “highest reachable concentration in DMSO” value ([2]; DMSO) was 20 mM and the solubility in water ([2]; water, room temperature) was “low solubility at room temperature”. The DLS aggregate stability ([3]; 0.1 mM, 5, 2.5 and 1% v/v DMSO/water) was “presence of stable aggregates”, the DLS aggregate stability ([3]; 0.1 mM, 20% and 10% DMSO in water) was “formation of some stable aggregates” and the DLS aggregate stability ([3]; 0.1 mM, 100, 80 and 50% v/v DMSO/water) was “very poor scattering power”.
